Laboratory results from patent US8337828B2, “Use of thymosin alpha 1, alone or in combination with PTX3 or ganciclovir, for the treatment of cytomegalovirus infection” (priority 2006, dated 2012).
Ends that are not written are not given here.

How the values were obtained:
IRF7 = assay: Immunoblot analysis of nuclear IRF7 in DC subsets; assay type: cell-based, BALB/c mice; settings: pDC, 50 μg/ml, alone or in combination with virus
Experimental: (§1) (FIG. 3a) CD11b+DC or pDC were generated from bone marrow of BALB/c mice, infected with MCMV and assessed for morphology by light microscopy and viral replication by real-time PCR of MCMV gB transcripts expression (both at 48 h) or for IRF7 nuclear expression by immunobloting with anti-IRF7 (2 h later). Cells were exposed (+) or not (−) to 50 μg/ml Thymosin alpha 1 for 2 h at 37° C. before infection. − represents uninfected cells. The results shown represent one representative experiment out of 3.
Immunoblot analysis of IRF7. DC were exposed for […] 50 μg/ml Thymosin alpha 1 or 10^5 PFU MCMV, either alone or in combination. Nuclear extracts were prepared with NE-PER nuclear and cytoplasmic extraction reagents (Pierce, Celbio S.r.l., Milan, Italy) and the protein concentration of the nuclear extracts was determined with a BCA-200 protein assay kit (Pierce) following the manufacture's instructions. Nuclear content of IRF7 was determined by Western blot using rabbit anti-IRF7 (H246) antibody and bovine anti-rabbit-horseradish peroxidase (Santa Cruz Biotechnology). Visualization was performed with the ECL Western blotting analysis system from Amersham and Kodak Biomax films.

MCMV = assay: Viral replication in DC subsets (real-time PCR of MCMV gB transcripts); assay type: cell-based, BALB/c mice; settings: 50 μg/ml for 2 h before infection, 48 h
Experimental: as §1
DC subset generation. DC were obtained by culturing 10^6/ml BALB/c bone marrow cells in Iscove's modified medium, containing 10% filtered bovine serum, 50 μM 2-mercaptoethanol, sodium pyruvate (1 mM), 2 mM L-glutamine, HEPES (10 mM), and 50 μg/ml gentamycin in the presence of 150 U/ml mouse rGM-CSF (Sigma) and 75 U/ml rIL-4 (R&D Systems) for 7 days to obtain CD11b+DC or 200 ng/ml FLT3-L (Immunex Corporation, Seattle, Wash.) for 9 days to obtain pDC. […]
Inhibition of viral replication. […] Infectivity was measured 48 h later.
Real time RT-PCR for quantification of MCMV mRNA. […]

With “Ac-Ser-Asp-Ala-Ala-Val-Asp-Thr-Ser-Ser-Glu -Ile-Thr-Thr-Lys-Asp-Leu-Lys-Glu-Lys-Lys-Glu-Val-Glu-Glu-Ala-Glu-Asn-O (Ac-SDAAVDTSSEITTKDLKEKKEVEEAEN) [Thymosin alpha 1, acidic peptide present in thymus extract with immunoregulatory properties]” the “nuclear IRF7 expression (translocation)” value (IRF7) was “translocation of IRF7”, the viral replication (MCMV; CD11b+DC) was “not affected” and the viral replication (MCMV; pDC) was “actually promoted”.
